The source of these data is ChEMBL document CHEMBL1649399, “Identification of a reduction product of aristolochic acid: implications for the metabolic activation of carcinogenic aristolochic acid” (J Nat Prod, 2010).

The source made the active and inactive calls. The rule behind the calls is not given here.

The subject of the experiment is Nucleic Acid. Briefly: Binding affinity to DNA assessed as DNA adduct formation. Format: nucleic-acid assay.

As for `COc1cccc2c1c(/N=c1\[nH]cnc3c1ncn3[C@H]1C[C@H](O)[C@@H](CO)O1)c1c3c(cc4c(c32)OCO4)C(=O)N1`, the outcome was Active. The value for `CC(=O)Nc1ccc2c(c1)Cc1ccccc1-2` was “Active”; that for `O=C1Nc2c(/N=c3\[nH]cnc4c3ncn4[C@H]3C[C@H](O)[C@@H](CO)O3)c3ccccc3c3c4c(cc1c23)OCO4` was “Active”; that for `O=C1Nc2c(Nc3nc4c(ncn4[C@H]4C[C@H](O)[C@@H](CO)O4)c(=O)[nH]3)c3ccccc3c3c4c(cc1c23)OCO4` was “Active”.

Turning to `COc1cccc2c1cc1c3c(cc4c(c32)OCO4)C(=O)N1`, the outcome was Active. Regarding `COc1cccc2c1c(Nc1nc3c(ncn3[C@H]3C[C@H](O)[C@@H](CO)O3)c(=O)[nH]1)c1c3c(cc4c(c32)OCO4)C(=O)N1`, the result was Active. The result for `O=C1Nc2cc3ccccc3c3c4c(cc1c23)OCO4` reads “Active”.
